Measured values as given in US4788069A (The Coca-Cola Company, priority 1987, dated 1988).
Residues, ends and D or L forms follow the SMILES beside them.

What was measured:
[1] = Sweetness relative to sucrose, compounds tasted in aqueous solution; conditions: for Sweetness (x sucrose w/w): Table I, diastereomeric mixtures of L-aspartyl-3-(bicycloalkyl) D,L-alanine methyl esters
Procedure: The 2R-endo- and 2R-exo-fenchyl esters described by Fujino, cited above, have sweetness of high intensity.
In Table I, the reported sweetness is measured for diastereomeric mixtures. The sweetness of each optically pure compound according to the invention will differ from the sweetness of the mixture.
The sweetness values of each compound shown in Table I correspond to a mixture of optical isomers, whose maximum theoretical number of isomers is listed. In order to evaluate the sweetness of different isomeric forms, four pairs of optical isomers of one of the novel compounds were synthesized. Each pair differed from the others only in the stereochemistry of the bicyclic camphor ring.

[2] = cited from earlier work; for times sweeter than sucrose: prior art value, weight to weight stated for formula 1

Compound: (alpha-carboxy) glycyl-3-norbornylalanine methyl ester
- sweetness (in words) ([1]; formula 4 tasted in aqueous solution): intensely sweet

Compound: COC(=O)C(CC1CC2CCC1C2)NC(=O)[C@@H](N)CC(=O)O (stereo partly drawn) [(R,S)endo norbornyl, L-Aspartyl-D,L-(endo-R,S-norbornyl)-3-alanine methyl ester]
- Sweetness (x sucrose w/w) [1]: 290 x sucrose w/w

Compound: COC(=O)C(NC(=O)[C@@H](N)CC(=O)O)C(=O)OC1C2(C)CCC(C2)C1(C)C (stereo partly drawn) [L-aspartyl-2-amino malonyl methyl fenchyl diester]
- times sweeter than sucrose [2]: 20,000 times sweeter than sucrose

Compound: COC(=O)[C@H](Cc1ccccc1)NC(=O)[C@@H](N)CC(=O)O [L-aspartyl-L-phenylalanine methyl ester] (H-Asp-Phe-OMe)
- times sweeter than sucrose [2]: about 180 times sweeter than sucrose

Compound: COC(=O)C(CC1CC2CCC1C2)NC(=O)C(N)CC(=O)O [(R,S)exo norbornyl]
- Sweetness (x sucrose w/w) [1]: 200 x sucrose w/w

Compound: CC12CCC(C1)C(C)(C)C2OC(=O)C(NC(=O)C(N)CC(=O)O)c1ccccc1 (stereo not drawn) [2R, exo-fenchyl ester]
- sweetness intensity (in words) ([2]; prior art fenchyl esters): high sweetness intensities

Compound: COC(=O)C(CC1CC2CCC1C2)NC(=O)[C@@H](N)CC(=O)O (stereo partly shown) [norbornyl]
- Sweetness (x sucrose w/w) [1]: 225 x sucrose w/w
